Results published in BigSolDB 2.1.

Row | SMILES | solubility (mole fraction) (in DMF, 278.15 K) | solubility (mole fraction) (in DMF, 283.15 K) | solubility (mole fraction) (in DMF, 288.15 K) | solubility (mole fraction) (in DMF, 293.15 K) | solubility (mole fraction) (in DMF, 298.15 K) | solubility (mole fraction) (in DMF, 303.15 K) | solubility (mole fraction) (in DMF, 308.15 K) | solubility (mole fraction) (in DMF, 313.15 K) | solubility (mole fraction) (in DMF, 318.15 K) | solubility (mole fraction) (in water, 278.15 K) | solubility (mole fraction) (in water, 283.15 K) | solubility (mole fraction) (in water, 288.15 K) | solubility (mole fraction) (in water, 293.15 K) | solubility (mole fraction) (in water, 298.15 K) | solubility (mole fraction) (in water, 303.15 K) | solubility (mole fraction) (in water, 308.15 K) | solubility (mole fraction) (in water, 313.15 K) | solubility (mole fraction) (in water, 318.15 K)
1 | CC(C)CC(N)C(=O)O (racemic) | 0.00011 | 0.00012 | 0.00014 | 0.00015 | 0.00017 | 0.00018 | 0.0002 | 0.00021 | 0.00023 | 0.0011 | 0.00115 | 0.00124 | 0.00128 | 0.00135 | 0.00144 | 0.00155 | 0.00164 | 0.00178
2 | CC[C@H](C)[C@H](N)C(=O)O (racemic) | 0.00023 | 0.00024 | 0.00025 | 0.00026 | 0.00027 | 0.00028 | 0.00029 | 0.0003 | 0.00031 | 0.0025 | 0.00269 | 0.0027 | 0.0029 | 0.003 | 0.0032 | 0.0034 | 0.0036 | 0.0038
